Assay results: patent US20220233556A1, “COMPOSITIONS AND METHODS FOR TREATING OPHTHALMIC CONDITIONS” (Medicon Pharmaceuticals, Inc., priority 2017, published 2022)
Like-named read-outs stand apart in the source and are kept apart here.

Assays:
Con A-induced dry eye = Con A-induced dry eye disease (DED) in rabbits: TBUT, tear osmolarity, STT, tear lactoferrin; assay type: in vivo, New Zealand White (NZW) rabbits
Method: Con A was injected under ultrasound guidance into all the lacrimal glands and the success of the injection was verified by a post-injection ultrasound image (see FIG. 1 and FIG. 2). […] This variation explains why the blind injections recommended in the original method are often unsuccessful. This was confirmed by mixing the Con A solution with methylene blue and tracking its course after injection. In about ⅓ of the cases, Con A ended up outside the gland.
Four parameters of efficacy were evaluated instead of the usual one or two. They include (a) the tear break up time (TBUT), determined using 0.2% fluorescein over the eye and recording the time taken to develop black dots, lines or obvious disruption of the fluorescein film; (b) tear osmolarity, measured using TearLab Osmolarity Test and following the manufacturer's instructions (TearLab Corp., San Diego, Calif.); (3) Schirmer tear test (STT), determined using Schirmer strips (EagleVision, Denville, N.J.) inserted between the cornea and the palpebral conjunctiva at the mid-point of the lower lid and measuring the length of moistened strip at 5 min; and (4) tear lactoferrin levels measured by ELISA kit (MyBiosource, San Diego, Calif.) following the instructions of the manufacturer. All four have been used in clinical practice and correlate with the clinical activity of the disease. The STT is the least reliable and, as result, it is clinically used less than half as frequently as TBUT.
The injections of Con A to the lacrimal glands were repeated weekly as needed. When longer than a 1-week periods of study are needed, repeat injections prolong dry eye for at least 3 weeks, making the originally acute model chronic.
PS Suppresses Con A—Induced Dry Eye in Rabbits. The effect of PS on dry eye was determined in New Zealand White (NZW) rabbits, 2-3 kg (Charles River Labs, Waltham, Mass.). These rabbits were housed singly in rooms with strict temperature (70±5° F.) and humidity (45±5%) control and acclimated for at least 2 weeks prior to induction of dry eye by injection of Con A as above. NZW rabbits with Con A-induced dry eye (three sets of injections) were treated with PS formulated as nanoparticles and administered topically as eye drops 3×/day for 21 days, starting on the day of Con A injection. […] Similar results were obtained on days 5 and 14 (data not shown). […]
The efficacy of lower concentrations of PS. The efficacy of lower concentrations of PS, 0.1% and 0.2% in DED, was also evaluated. The same animal model (rabbits with Concanavalin A-induced DED) was used. The same methodology described herein was followed, except that PS was administered as two eye drops per eye (˜25 μL each) four times a day. PS was formulated in: 10% (2-hydroxypropyl)-β-cyclodextrin, 4% Tween 80, 2.5% Vitamin E TPGS, 1.4% polyvinyl alcohol (13,000-26,000 molecular weight), 0.001% polyquad, as described herein. The Table below summarizes the corresponding findings: […]

NF-κB = NF-κB activation in the ILG of rabbits with DED; assay type: in vivo; settings: 1 week of treatment, vs vehicle
Method: FIGS. 6A and 6B illustrate that PS suppresses the activation of NF-κB and MAPKs. In FIG. 6A, NF-κB activation was determined by EMSA in cultured human conjunctival cells stimulated with TNFα (top) and in the ILG of rabbits with Con A-induced DED and treated for one week with either vehicle or PS (bottom). In FIG. 6B, immunoblots detecting the activation of MAPKs by phosphorylation in cultured human conjunctival cells treated with PS at the indicated concentrations for 3.5 h. Loading control: β-actin.
Human conjunctival cells were treated with various concentrations of PS. Five hours later, TNF-α was added to the culture medium to a final concentration of 10 ng/ml and the status of NF-κB activation was determined by EMSA 1 h later. […] Similarly, after 1 week of treatment, PS suppressed NF-κB activation in the ILG of rabbits with DED compared to those treated with vehicle.

[1] = PS biodistribution after topical alternative sodium alginate-based in-situ gel; assay type: in vivo, New Zealand white rabbits; settings: New Zealand white, rabbit, 3 % PS in formulation
Method: Composition: 3% PS, 1.5% sodium alginate, 15% Tween 80, 10% (2-hydroxypropyl)-β-cyclodextrin, 10% polyethylene glycol 400 (PEG400), 5% polyoxyl stearate.
Preparation Method: A sodium alginate solution was prepared by adding an appropriate amount of sodium alginate to deionized water and heating the mixture to 90° C. with fast stirring (500 rpm). Once sodium alginate was completely dissolved, the solution was filtered through a 0.22 μm filter. Then, PS and additional excipients were added to achieve the above concentrations and stirred at 50° C. at 500 rpm until complete dissolution.
Results: PS in this formulation was administered topically to the eyes of New Zealand white rabbits and its biodistribution was determined as above.

[2] = PS biodistribution after topical Poloxamer 407-based in-situ gel; assay type: in vivo, New Zealand white rabbits; settings: Poloxamer 407 gel, eye drops; for concentration at 3 h: New Zealand white, rabbit, topical, 5.4 % PS in formulation
Method: Composition: 5.4% PS; 20% Poloxamer 407; 12% Vitamin E TPGS.
Preparation Method: Poloxamer 407 solution (thermosensitive gel solution) was prepared using a “cold method.” The required amount of Poloxamer 407 and other excipients were dissolved in cold double-distilled water at 4° C. The mixture was stirred continuously until a clear solution was obtained. Then the appropriate amount of PS was dissolved in cold PM solution with continuous stirring at room temperature until a clear solution formed.
Results: PS in this formulation was administered topically as eye drops to the eyes of New Zealand white rabbits. The biodistribution of PS in ocular tissues at 3 h and 6 h was determined by HPLC.

[3] = 1 week of treatment, comparison with ophthalmic NSAIDs (FIG. 5)
[4] = PS 0.1%, two eye drops four times a day, Baseline, mean ± SEM (n = 12)
[5] = PS 0.1%, two eye drops four times a day, Day 5, mean ± SEM (n = 12)
[6] = PS 0.2%, two eye drops four times a day, Baseline, mean ± SEM (n = 12)
[7] = PS 0.2%, two eye drops four times a day, Day 5, mean ± SEM (n = 12)
[8] = PS nanoparticles, eye drops 3x/day for 21 days
[9] = conjunctiva, read-out: PS in Conjunctiva

CCOP(=O)(OCC)OCCCCOC(=O)CC1=C(C)/C(=C/c2ccc([S+](C)[O-])cc2)c2ccc(F)cc21 (stereo not shown) [PS, phosphosulindac]
STT (Con A-induced dry eye; [3]): no significant effect
TBUT (Con A-induced dry eye; [3]): normalized
osmolarity (Con A-induced dry eye; [3]): normalized
STT (Con A-induced dry eye; [4]): 16.4 ± 1.5 mm
TBUT (Con A-induced dry eye; [4]): 57.9 ± 1.5 s
STT (Con A-induced dry eye; [5]): 12.0 ± 0.8 mm
TBUT (Con A-induced dry eye; [5]): 45.4 ± 5.2 s
STT (Con A-induced dry eye; [6]): 15.9 ± 1.0 mm
TBUT (Con A-induced dry eye; [6]): 57.9 ± 2.1 s
STT (Con A-induced dry eye; [7]): 11.8 ± 0.9 mm
TBUT (Con A-induced dry eye; [7]): 45.7 ± 4.5 s
TBUT (Con A-induced dry eye; [8]): restored to normal
tear lactoferrin levels (Con A-induced dry eye; [8]): restored to normal
tear osmolarity (Con A-induced dry eye; [8]): restored to normal
STT value (Con A-induced dry eye; PS nanoparticles, eye drops 3x/day for 21 days, difference from vehicle significant only for trend): improved
NF-κB activation in the ILG (NF-κB): suppressed
concentration at 1 h ([1]; aqueous humor, read-out: PS in Aqueous humor): 400 nM
concentration at 1 h [1, 9]: 4900 nM
concentration at 3 h [1, 9]: 2100 nM
concentration at 5 h [1, 9]: 2300 nM
concentration at 8 h ([1]; conjunctiva, 8 h): 1300 nM
concentration at 1 h ([1]; cornea, read-out: PS in Cornea): 17800 nM
concentration at 3 h ([1]; cornea, read-out: PS in Cornea): 5000 nM
concentration at 5 h ([1]; cornea, read-out: PS in Cornea): 1000 nM
PS in Aqueous humor ([2]; 3 h, 5.4% PS): 0.3 µM
PS in Conjunctiva ([2]; 3 h, 5.4% PS): 5.6 µM
PS in Aqueous humor ([2]; 6 h, 5.4% PS): 0.3 µM
PS in Conjunctiva ([2]; 6 h, 5.4% PS): 10.7 µM
PS in Cornea ([2]; 6 h, 5.4% PS): 13.6 µM
concentration at 3 h ([2]; choroid, 3 h, read-out: PS in Choroid): 900 nM
concentration at 3 h ([2]; cornea, 3 h, read-out: PS in Cornea): 45100 nM
